The target in assay [1] is T1, Pteridine reductase 1 (Leishmania major) (UniProt Q01782).
T1 sequence (whole entry): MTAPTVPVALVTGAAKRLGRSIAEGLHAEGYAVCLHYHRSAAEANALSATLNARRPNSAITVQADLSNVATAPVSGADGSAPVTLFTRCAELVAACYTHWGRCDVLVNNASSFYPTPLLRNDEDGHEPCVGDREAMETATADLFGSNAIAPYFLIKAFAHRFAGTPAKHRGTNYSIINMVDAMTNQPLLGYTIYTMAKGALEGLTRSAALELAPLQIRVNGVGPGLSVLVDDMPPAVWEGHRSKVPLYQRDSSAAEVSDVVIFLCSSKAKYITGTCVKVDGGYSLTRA
The experiment in a line: Binding affinity to Leishmania major PTR1 BL21(DE3) assessed as change in melting temperature at 50 uM by SYPRO orange dye based RT-PCR analysis.

Assay [2] deals with T1, Pteridine reductase 1 (Leishmania major). The experiment in a line: Binding affinity to Leishmania major PTR1 BL21(DE3) assessed as change in melting temperature by SYPRO orange dye based RT-PCR analysis.
Assay [3] shares this target. Briefly: Competitive inhibition of Leishmania major PTR1 assessed as decrease in thermal shift stabilization at 1 mM in presence of varying levels of biopterin and constant NADPH level by spectrofluorimetric method.
The target is the same in assay [4]. The experiment in a line: Competitive inhibition of Leishmania major PTR1 assessed as decrease in thermal shift stabilization at 1 mM in presence of saturating concentration of biopterin and varying levels of NADPH by spectrofluorimetric method.
For assay [5] the target is unchanged. The experiment in a line: Inhibition of Leishmania major PTR1 at 50 uM using biopterin as substrate and NADPH as cofactor by spectrofluorimetric method relative to control.
Assay [6] has as its target T2, Pteridine reductase 1 (Leishmania major, UniProt Q01782).
T2 sequence (Q01782 whole entry): T1 sequence (whole entry)
Briefly: Inhibition of Leishmania major PTR1 using biopterin as substrate and NADPH as cofactor by spectrofluorimetric method.

The target of assay [7] is T1, Pteridine reductase 1 (Leishmania major). Briefly: Noncompetitive inhibition of Leishmania major PTR1 at 1 mM in presence of saturating concentration of biopterin and varying levels of NADPH by spectrofluorimetric method.
Assay [8] has the same target. The experiment in a line: Noncompetitive inhibition of Leishmania major PTR1 at 1 mM in presence of varying levels of biopterin and constant NADPH level by spectrofluorimetric method.

Structures are written as SMILES. Activity calls are given as the source filed them. The rule behind the calls is not given here.

The ΔTm is the change in melting temperature against a reference sample. Broadly, the inhibition is the change of the read-out against control, counted positive when it falls. For orientation: IC50 means the concentration needed to halve the response being measured. A lower IC50 goes with higher potency. `Cc1sc2ncnc(N/N=C/c3ccccc3)c2c1C`: the ΔTm in assay [1] amounted to 1.02 °C. For the same molecule, the Activity result in assay [2] is “Dose-dependent effect”. Moreover, the inhibition result in assay [3] and in assay [4] was “Active” in each case. The inhibition in assay [5] is more than 50%. The molecule also had an IC50 in assay [6] of 32.3 µM.

Turning to `CC(N(C)Cc1nc2ccccc2c(=O)[nH]1)C(C)(C)C` (stereo not given), the ΔTm in assay [1] was 0.91 °C. Further, the Activity result in assay [2] was “Dose-dependent effect”. For the same molecule, the inhibition entry in assay [7] and in assay [8] was “Active” throughout.

For the origin of these results see ChEMBL document CHEMBL4024726, “An integrated approach towards the discovery of novel non-nucleoside Leishmania major pteridine reductase 1 inhibitors” (Eur J Med Chem, 2017).
